From article PMC8170916, “Sublingual AKBA Exerts Antidepressant Effects in the Aβ-Treated Mouse Model” (Biomolecules, 2021)

Tests used:
[1] = system: APPswe/PS1dE9; parameters: method as in PMID 32109514; settings: AD genetic model; cited from earlier work
[2] = parameters: method as in PMID 21553931; settings: cited from earlier work
[3] = system: 5-LOX; parameters: method as in PMID 9760176; settings: cited from earlier work
[4] = system: Aβ-treated mice; test: Tail suspension test in Aβ-treated mice; format: in vivo; settings: mice 7 days after icv Aβ 4 µM, sublingual AKBA 5 mg/kg 30 min before, Aβ vs SHAM
[5] = system: Aβ-treated mice; test: Splash test in Aβ-treated mice; format: in vivo; settings: mice 7 days after icv Aβ 4 µM
[6] = system: kynurenine (KYN); test: Kynurenine quantification in PFC and HIPP by HPLC with electrochemical detection; format: in vivo; settings: mice 7 days after icv Aβ 4 µM, sublingual AKBA 5 mg/kg 30 min earlier
Protocol: All behavioral experiments were conducted at 5 or 30 min after sublingual administrations of AKBA or vehicle in either SHAM or Aβ-treated mice. Based upon behavioral outcomes observed, neurochemical and biochemical quantifications were performed 30 min after AKBA or vehicle administration in either SHAM or Aβ-treated mice.
Anesthetized animals were sacrificed by cervical dislocation. Brains were immediately removed and kept on ice for dissection of PFC and HIPP, according to the atlas of Paxinos and Franklin. Tissues were frozen and stored at −80 °C until analyses were carried out. Samples (PFC and HIPP) were homogenized (1:10 w/v) at 4 °C using a PBS buffer containing a 1:100 protease and phosphatase inhibitor cocktail (HALT inhibitors, Thermo Fisher Scientific, Cleveland, OH, USA) for biochemical analyses or perchloric acid 0.1 M for neurochemical analyses. Homogenates were centrifuged at 13,000× g at 4 °C for 20 min, and supernatants were used for further determinations.
5-HT, noradrenaline (NA), and KYN levels were measured in the PFC and HIPP of mice by HPLC coupled with an electrochemical detector (Ultimate ECD, Thermo Scientific Dionex, Milan, Italy) as already reported. Separation was performed by a LC18 reverse phase column (Kinetex, 150 mm × 3.0 mm, ODS 5 μm; Phenomenex, Castel Maggiore-Bologna, Italy). The detection was accomplished by a thin layer amperometric cell (Thermo Scientific Dionex, Milan, Italy) with a 5 mm diameter glassy carbon electrode at a working potential of 400 mV (5-HT and NA) or 0.750 mV (KYN) vs. Pd. The mobile phase consisted of an aqueous buffer containing 75 mM NaH2PO4, 1.7 mM octane sulfonic acid, 0.3 mM EDTA, and acetonitrile 10%, buffered at pH 3.0. The flow rate was kept at 0.7 mL·min-1 by an isocratic pump (Shimadzu LC-10 AD, Kyoto, Japan). Data acquisition and integration were performed by using Chromeleon software (version 6.80, Thermo Scientific Dionex, Milan, Italy). GLU concentrations were determined by HPLC coupled with fluorescence detection (emission length 460 nm; excitation length 340 nm), as previously published. Analyses were carried out using an LC18 reverse phase column (Kinetex, 150 mm × 3.0 mm, ODS 5 μm; Phenomenex, Castel Maggiore, Bologna, Italy) and detection was accomplished by pre-column derivatization with ophthalaldehyde/mercaptopropionic acid. The mobile phase consisted of a 50 mM sodium acetate buffer, at pH 6.95, with gradient methanol increasing linearly from 2 to 30% (v/v) over a 40 min run. […] Results were analyzed by Borwin software (version 1.50; Jasco, Cremella, Italy) and the amino acid concentration was expressed as µM. All data were normalized for total area weight and were expressed as concentration/mg of tissue.

[7] = sublingual AKBA 5 mg/kg 30 min before testing, Aβ vs SHAM, Aβ+AKBA vs Aβ

## CC(=O)O[C@@H]1CC[C@@]2(C)[C@@H](CC[C@]3(C)[C@@H]2C(=O)C=C2[C@@H]4[C@@H](C)[C@H](C)CC[C@]4(C)CC[C@]23C)[C@@]1(C)C(=O)O [AKBA, 3-O-acetyl-11-keto-β-boswellic acid]
[1]
  Cerebral amyloid beta (Aβ) production and plaque burden in APPswe/PS1dE9: decrease cerebral amyloid beta (Aβ) production and plaque burden
  Cognitive impairments in APPswe/PS1dE9: able to reverse cognitive impairments
[2]
  Oral bioavailability: low oral bioavailability
[3]
  5-LOX inhibition: 5-LOX inhibitor
[4]
  Immobility time in the tail suspension test: prevented such an effect
[5]; sublingual AKBA 5 mg/kg 5 min before testing
  Depressive-like behavior induced by Aβ in the splash test, 5 min after AKBA: not reverted
[5]; [7]
  Latency to leak in the splash test: such an outcome was reverted
  Time spent performing self-care in the splash test: prevented such an effect
[6]; HIPP
  KYN levels in the HIPP: prevented the increase in KYN levels
[6]; PFC
  KYN levels in the PFC: prevented such an increase
